Source: patent publication US11180470B2, “Herbicidal pyrimidine compounds” (BASF SE, priority 2016, dated 2021)

Key:
ECHCG [1] = assay: greenhouse experiment, post-emergence treatment; assay type: in vivo, Echinocloa crus-galli; conditions: post-emergence method, scale from 0 to 100
Experimental: The seeds of the test plants were sown separately for each species. […] For this purpose, the test plants were either sown directly and grown in the same containers, or they were first grown separately as seedlings and transplanted into the test containers a few days prior to treatment. Depending on the species, the plants were kept at 10-25° C. or 20-35° C., respectively. The test period extended over 2 to 4 weeks. During this time, the plants were tended, and their response to the individual treatments was evaluated. Evaluation was carried out using a scale from 0 to 100. 100 means no emergence of the plants, or complete destruction of at least the aerial moieties, and 0 means no damage, or normal course of growth. A good herbicidal activity is given at values of at least 70 and a very good herbicidal activity is given at values of at least 85. The plants used in the greenhouse experiments were of the following species: [table]

ECHCG [2] = assay: greenhouse experiment, pre-emergence treatment; assay type: in vivo, Echinocloa crus-galli; conditions: pre-emergence method, scale from 0 to 100
Source text: (§1) The seeds of the test plants were sown separately for each species. For the pre-emergence treatment, the active ingredients, which had been suspended or emulsified in water, were applied directly after sowing by means of finely distributing nozzles. The containers were irrigated gently to promote germination and growth and subsequently covered with transparent plastic hoods until the plants had rooted. This cover caused uniform germination of the test plants, unless this had been impaired by the active ingredients. Depending on the species, the plants were kept at 10-25° C. or 20-35° C., respectively. The test period extended over 2 to 4 weeks. During this time, the plants were tended, and their response to the individual treatments was evaluated. Evaluation was carried out using a scale from 0 to 100. 100 means no emergence of the plants, or complete destruction of at least the aerial moieties, and 0 means no damage, or normal course of growth. A good herbicidal activity is given at values of at least 70 and a very good herbicidal activity is given at values of at least 85. The plants used in the greenhouse experiments were of the following species: [table]

APESV = assay: greenhouse experiment, pre-emergence treatment; assay type: in vivo, Apera spica-venti; conditions: pre-emergence method, scale from 0 to 100
Source text: as §1

AVEFA = assay: greenhouse experiment, post-emergence treatment; assay type: in vivo, Avena fatua; conditions: post-emergence method, scale from 0 to 100
Source text: (§2) The culture containers used were plastic flowerpots containing loamy sand with approximately 3.0% of humus as the substrate. The seeds of the test plants were sown separately for each species.
(§3) For the post-emergence treatment, the test plants were first grown to a height of 3 to 15 cm, depending on the plant habit, and only then treated with the active ingredients which had been suspended or emulsified in water. For this purpose, the test plants were either sown directly and grown in the same containers, or they were first grown separately as seedlings and transplanted into the test containers a few days prior to treatment.
(§4) Depending on the species, the plants were kept at 10-25° C. or 20-35° C., respectively.
(§5) The test period extended over 2 to 4 weeks. During this time, the plants were tended, and their response to the individual treatments was evaluated.
(§6) Evaluation was carried out using a scale from 0 to 100. 100 means no emergence of the plants, or complete destruction of at least the aerial moieties, and 0 means no damage, or normal course of growth. A good herbicidal activity is given at values of at least 70 and a very good herbicidal activity is given at values of at least 85.
(§7) The plants used in the greenhouse experiments were of the following species: […]

ALOMY = assay: greenhouse experiment, post-emergence treatment; assay type: in vivo, Alopecurus myosuroides; conditions: post-emergence method, scale from 0 to 100
Source text: as §2, §3, §4, §5, §6, §7

| Compound | herbicidal activity against ECHCG (ECHCG [1]; application rate 2000 g/ha) | herbicidal activity against ECHCG (ECHCG [2]; application rate 2000 g/ha) | herbicidal activity against APESV (APESV; application rate 2000 g/ha) | herbicidal activity against ALOMY (ALOMY; application rate 2000 g/ha) | further results |
| --- | --- | --- | --- | --- | --- |
| COC(=O)c1nc(C2CC2)ncc1-c1sccc1C [Example 4] | very good (a very good herbicidal activity is given at values of at least 85) | very good (a very good herbicidal activity is given at values of at least 85) |  |  |  |
| COC(=O)c1nc(C2CC2)ncc1-c1ccsc1C [Example 5] |  | very good (a very good herbicidal activity is given at values of at least 85) |  |  |  |
| Cc1cscc1-c1cnc(C2CC2)nc1C(=O)O [Example 6] | very good (a very good herbicidal activity is given at values of at least 85) | very good (a very good herbicidal activity is given at values of at least 85) | very good (a very good herbicidal activity is given at values of at least 85) |  |  |
| COC(=O)c1nc(C2CC2)ncc1-c1cscc1C [Example 7] | very good (a very good herbicidal activity is given at values of at least 85) | very good (a very good herbicidal activity is given at values of at least 85) |  |  |  |
| Cc1sccc1-c1cnc(C2CC2)nc1C(=O)O [Example 8] |  | very good (a very good herbicidal activity is given at values of at least 85) | very good (a very good herbicidal activity is given at values of at least 85) |  |  |
| COC(=O)c1nc(C2CC2)ncc1-c1ccsc1Cl [Example 11] |  |  |  |  | herbicidal activity against ECHCG (ECHCG [2]; application rate 1000 g/ha): very good (a very good herbicidal activity is given at values of at least 85); herbicidal activity against AVEFA (AVEFA; application rate 1000 g/ha): good (A good herbicidal activity is given at values of at least 70); herbicidal activity against ALOMY (ALOMY; application rate 1000 g/ha): very good (a very good herbicidal activity is given at values of at least 85) |
| O=C(O)c1nc(C2CC2)ncc1-c1ccsc1Cl [Example 12] |  |  |  |  | herbicidal activity against APESV (APESV; application rate 1000 g/ha): very good (a very good herbicidal activity is given at values of at least 85); herbicidal activity against ECHCG (ECHCG [2]; application rate 1000 g/ha): very good (a very good herbicidal activity is given at values of at least 85); herbicidal activity against AVEFA (AVEFA; application rate 1000 g/ha): very good (a very good herbicidal activity is given at values of at least 85); herbicidal activity against ALOMY (ALOMY; application rate 1000 g/ha): very good (a very good herbicidal activity is given at values of at least 85) |
| O=C(O)c1nc(C2CC2)ncc1-c1ccoc1Cl [Example 13] | very good (a very good herbicidal activity is given at values of at least 85) | very good (a very good herbicidal activity is given at values of at least 85) | very good (a very good herbicidal activity is given at values of at least 85) | very good (a very good herbicidal activity is given at values of at least 85) |  |
| O=C(O)c1nc(C2CC2)ncc1-c1ccoc1Br [Example 14] |  |  |  |  | herbicidal activity against APESV (APESV; application rate 1000 g/ha): good (A good herbicidal activity is given at values of at least 70); herbicidal activity against ECHCG (ECHCG [2]; application rate 1000 g/ha): very good (a very good herbicidal activity is given at values of at least 85) |
| COC(=O)c1nc(C2CC2)ncc1-c1ccoc1Cl [Example 15] |  | good (A good herbicidal activity is given at values of at least 70) |  |  |  |
| COC(=O)c1nc(C2CC2)ncc1-c1ncccc1Cl [Example 16] |  |  |  |  | herbicidal activity against ECHCG (ECHCG [1]; application rate 1000 g/ha): very good (a very good herbicidal activity is given at values of at least 85); herbicidal activity against APESV (APESV; application rate 1000 g/ha): good (A good herbicidal activity is given at values of at least 70); herbicidal activity against ECHCG (ECHCG [2]; application rate 1000 g/ha): good (A good herbicidal activity is given at values of at least 70); herbicidal activity against AVEFA (AVEFA; application rate 1000 g/ha): good (A good herbicidal activity is given at values of at least 70); herbicidal activity against ALOMY (ALOMY; application rate 1000 g/ha): very good (a very good herbicidal activity is given at values of at least 85) |
| O=C(O)c1nc(C2CC2)ncc1-c1cccnc1Br [Example 20] | very good (a very good herbicidal activity is given at values of at least 85) | very good (a very good herbicidal activity is given at values of at least 85) | very good (a very good herbicidal activity is given at values of at least 85) |  | herbicidal activity against AVEFA (AVEFA; application rate 2000 g/ha): very good (a very good herbicidal activity is given at values of at least 85) |
| COC(=O)c1nc(C2CC2)ncc1-c1ncc(F)cc1Br [Example 21] | very good (a very good herbicidal activity is given at values of at least 85) | very good (a very good herbicidal activity is given at values of at least 85) | very good (a very good herbicidal activity is given at values of at least 85) | very good (a very good herbicidal activity is given at values of at least 85) | herbicidal activity against AVEFA (AVEFA; application rate 2000 g/ha): very good (a very good herbicidal activity is given at values of at least 85) |
| O=C(O)c1nc(C2CC2)ncc1-c1ncccc1F [Example 23] | very good (a very good herbicidal activity is given at values of at least 85) | very good (a very good herbicidal activity is given at values of at least 85) | very good (a very good herbicidal activity is given at values of at least 85) | very good (a very good herbicidal activity is given at values of at least 85) |  |
| COC(=O)c1nc(C2CC2)ncc1-c1cccnc1F [Example 25] |  |  |  |  | herbicidal activity against ECHCG (ECHCG [1]; application rate 1000 g/ha): very good (a very good herbicidal activity is given at values of at least 85) |
| O=C(O)c1nc(C2CC2)ncc1-c1ncccc1Br [Example 29] | very good (a very good herbicidal activity is given at values of at least 85) | good (A good herbicidal activity is given at values of at least 70) | good (A good herbicidal activity is given at values of at least 70) | very good (a very good herbicidal activity is given at values of at least 85) | herbicidal activity against AVEFA (AVEFA; application rate 2000 g/ha): very good (a very good herbicidal activity is given at values of at least 85) |
| O=C(O)c1nc(C2CC2)ncc1-c1ncc(F)cc1F [Example 36] |  | very good (a very good herbicidal activity is given at values of at least 85) | very good (a very good herbicidal activity is given at values of at least 85) | very good (a very good herbicidal activity is given at values of at least 85) | herbicidal activity against AVEFA (AVEFA; application rate 2000 g/ha): very good (a very good herbicidal activity is given at values of at least 85) |
| O=C(O)c1nc(C2CC2)ncc1-c1ccncc1F [Example 37] | good (A good herbicidal activity is given at values of at least 70) | very good (a very good herbicidal activity is given at values of at least 85) | good (A good herbicidal activity is given at values of at least 70) | good (A good herbicidal activity is given at values of at least 70) |  |
| CCc1ncc(-c2ncccc2Br)c(C(=O)OC)n1 [Example 43] |  | very good (a very good herbicidal activity is given at values of at least 85) |  |  |  |
| CCc1ncc(-c2ncccc2F)c(C(=O)O)n1 [Example 50] |  |  |  |  | herbicidal activity against ECHCG (ECHCG [1]; application rate 1000 g/ha): very good (a very good herbicidal activity is given at values of at least 85) |
| COc1ncc(-c2ncccc2Br)c(C(=O)O)n1 [Example 51] | good (A good herbicidal activity is given at values of at least 70) |  |  | good (A good herbicidal activity is given at values of at least 70) | herbicidal activity against AVEFA (AVEFA; application rate 2000 g/ha): good (A good herbicidal activity is given at values of at least 70) |
